# Experimental data as given in US10669242B2 (priority 2016, dated 2020).
# Biological target: T1, recombinant glucosyltransferase domain of C. difficile Toxin B/TcdB (Clostridioides difficile, UniProt P18177)
# T1 construct: 6-His (C); purchased R&D Systems 6246-GT
# Assay: biochemical
# Settings: not given
# T1 sequence (P18177 1-543): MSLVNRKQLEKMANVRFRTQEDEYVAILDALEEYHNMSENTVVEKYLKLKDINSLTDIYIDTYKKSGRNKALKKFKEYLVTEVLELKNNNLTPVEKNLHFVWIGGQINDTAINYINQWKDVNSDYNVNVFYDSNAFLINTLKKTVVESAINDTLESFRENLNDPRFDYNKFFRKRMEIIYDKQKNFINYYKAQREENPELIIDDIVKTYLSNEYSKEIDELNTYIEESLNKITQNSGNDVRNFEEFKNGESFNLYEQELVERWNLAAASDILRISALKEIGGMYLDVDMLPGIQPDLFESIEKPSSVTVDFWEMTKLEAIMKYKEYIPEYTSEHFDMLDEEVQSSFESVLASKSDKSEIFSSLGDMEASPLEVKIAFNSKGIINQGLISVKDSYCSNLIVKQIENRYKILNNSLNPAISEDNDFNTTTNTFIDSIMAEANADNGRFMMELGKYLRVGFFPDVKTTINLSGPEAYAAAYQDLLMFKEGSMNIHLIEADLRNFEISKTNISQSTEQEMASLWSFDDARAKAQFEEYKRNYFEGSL
row,Structure (SMILES),IC50 [µM]
1,O=C(Nc1ccc(CN2C(=O)c3ccc(Cl)cc3NC(=O)[C@H]2Cc2ccccn2)cc1)c1ccncn1 [Example 27c],0.1 to 0.999
2,O=C(Nc1ccc(CN2C(=O)c3ccc(Cl)cc3NC(=O)[C@H]2Cc2ccccn2)cc1)c1cnccn1 [Example 27d],0.1 to 0.999
3,O=C(Nc1ccc(CN2C(=O)c3ccc(Cl)cc3NC(=O)[C@H]2Cc2ccccn2)cc1)c1nccs1 [Example 27e],0.1 to 0.999
4,O=C(Nc1ccc(CN2C(=O)c3ccc(Cl)cc3NC(=O)[C@H]2Cc2ccccn2)cc1)c1cscn1 [Example 27f],< 0.1
5,Cc1cc(C(=O)Nc2ccc(CN3C(=O)c4ccc(Cl)cc4NC(=O)[C@H]3Cc3ccccn3)cc2)no1 [Example 27g],1 to 10
6,O=C(Nc1ccc(CN2C(=O)c3ccc(Cl)cc3NC(=O)[C@H]2Cc2ccccn2)cc1)c1ncc[nH]1 [Example 27h],< 0.1
7,Cn1ccnc1C(=O)Nc1ccc(CN2C(=O)c3ccc(Cl)cc3NC(=O)[C@H]2Cc2ccccn2)cc1 [Example 27i],0.1 to 0.999
8,Cn1cnc(C(=O)Nc2ccc(CN3C(=O)c4ccc(Cl)cc4NC(=O)[C@H]3Cc3ccccn3)cc2)c1 [Example 27k],< 0.1
9,"O=C(Nc1cccc(CN2C(=O)c3ccc(Cl)cc3NC(=O)[C@H]2Cc2ccccn2)c1)c1ccccn1 [Example 28a, (R)—N-(3-((8-Chloro-2,5-dioxo-3-(pyridin-2-ylmethyl)-2,3-dihydro-1H-benzo[e][1,4]diazepin-4(5H)-yl)methyl)phenyl)picolinamide]",< 0.1
10,COCC(=O)Nc1cccc(CN2C(=O)c3ccc(Cl)cc3NC(=O)[C@H]2Cc2ccccn2)c1 [Example 28b],1 to 10
11,"O=C(CS)Nc1ccc(CN2C(=O)c3ccc(Cl)cc3NC(=O)[C@H]2Cc2ccccn2)cc1 [Example 29a, (R)—N-(4-((8-Chloro-2,5-dioxo-3-(pyridin-2-ylmethyl)-2,3-dihydro-1H-benzo[e][1,4]diazepin-4(5H)-yl)methyl)phenyl)-2-mercaptoacetamide]",1 to 10
12,"CS(=O)(=O)Nc1ccc(CN2C(=O)c3ccc(Cl)cc3NC(=O)[C@H]2Cc2ccccn2)cc1 [Example 30a, (R)—N-(4-((8-Chloro-2,5-dioxo-3-(pyridin-2-ylmethyl)-2,3-dihydro-1H-benzo[e][1,4]diazepin-4(5H)-yl)methyl)phenyl)methanesulfonamide]",10 to 35
13,COCC(=O)Nc1ccc(CN2C(=O)c3ccc(Cl)cc3NC(=O)[C@H]2Cc2ccccn2)cc1 [Example 30b],10 to 35
14,O=C1Nc2cc(Cl)ccc2C(=O)N(Cc2cccc(NS(=O)(=O)c3ccccn3)c2)[C@@H]1Cc1ccccn1 [Example 30c],1 to 10
15,O=C(c1ccc(CN2C(=O)c3ccc(Cl)cc3NC(=O)[C@H]2Cc2ccccn2)cc1)c1cccc2cccnc12 [Example 31b],1 to 10
16,Cn1ccnc1C(=O)c1ccc(CN2C(=O)c3ccc(Cl)cc3NC(=O)[C@H]2Cc2ccccn2)cc1 [Example 31c],0.1 to 0.999
17,Cn1cnc(C(=O)c2ccc(CN3C(=O)c4ccc(Cl)cc4NC(=O)[C@H]3Cc3ccccn3)cc2)c1 [Example 31d],0.1 to 0.999
18,Cc1cc(C(=O)c2ccc(CN3C(=O)c4ccc(Cl)cc4NC(=O)[C@H]3Cc3ccccn3)cc2)c2nccn2c1 [Example 31e],1 to 10
19,O=C(c1ccc(CN2C(=O)c3ccc(Cl)cc3NC(=O)[C@H]2Cc2ccccn2)cc1)c1cccn2ncnc12 [Example 31f],< 0.1
20,"O=C1Nc2cc(Cl)ccc2C(=O)N(C[C@H]2CC[C@H](C(=O)c3cccc4cccnc34)CC2)[C@@H]1Cc1ccccn1 [Example 33a, (R)-8-Chloro-3-(pyridin-2-ylmethyl)-4-(((1r,4R)-4-(quinoline-8-carbonyl)cyclohexyl)methyl)-3,4-dihydro-1H-benzo[e][1,4]diazepine-2,5-dione]",10 to 35
21,Cn1ccnc1C(=O)[C@H]1CC[C@H](CN2C(=O)c3ccc(Cl)cc3NC(=O)[C@H]2Cc2ccccn2)CC1 [Example 33c],1 to 10
22,Cn1cnc(C(=O)[C@H]2CC[C@H](CN3C(=O)c4ccc(Cl)cc4NC(=O)[C@H]3Cc3ccccn3)CC2)c1 [Example 33d],0.1 to 0.999
23,"Cc1ccc(NC(=O)c2ccc(CN3C(=O)c4ccc(Cl)cc4NC(=O)[C@@H]3Cc3cscn3)cc2)nc1 [Example 35a, (S)-4-((8-Chloro-2,5-dioxo-3-(thiazol-4-ylmethyl)-2,3-dihydro-1H-benzo[e][1,4]diazepin-4(5H)-yl)methyl)-N-(5-methylpyridin-2-yl)benzamide]",0.1 to 0.999

row,Structure (SMILES),IC50 [µM]
1,Cc1ccc(NC(=O)c2ccc(CN3C(=O)c4ccc(Cl)cc4NC(=O)[C@H]3Cc3ccsc3)cc2)nc1 [Example 35b],< 0.1
2,O=C(Nc1ccccn1)c1ccc(CN2C(=O)c3ccc(Cl)cc3NC(=O)[C@H]2c2ccccc2)cc1 [Example 35c],1 to 10
3,COc1ccc(C[C@@H]2C(=O)Nc3cc(Cl)ccc3C(=O)N2Cc2ccc(C(=O)Nc3ccccn3)cc2)cc1 [Example 35d],0.1 to 0.999
4,O=C(Nc1ccccn1)c1ccc(CN2C(=O)c3ccc(Cl)cc3NC(=O)C2CC2CCOCC2)cc1 (centres unmarked) [Example 35e],1 to 10
5,O=C(Nc1ccccn1)c1ccc(CN2C(=O)c3ccc(C(F)(F)F)cc3NC(=O)[C@H]2Cc2ccc(Cl)c(Cl)c2)cc1 [Example 35f],1 to 10
6,O=C(Nc1ccccn1)c1ccc(CN2C(=O)c3ccccc3NC(=O)[C@H]2Cc2cccnc2)cc1 [Example 35g],0.1 to 0.999
7,O=C(Nc1ccccn1)c1ccc(CN2C(=O)c3cc(Cl)ccc3NC(=O)[C@H]2Cc2cccnc2)cc1 [Example 35h],0.1 to 0.999
8,O=C(Nc1ccccn1)c1ccc(CN2C(=O)c3cccc(Cl)c3NC(=O)[C@H]2Cc2cccnc2)cc1 [Example 35i],1 to 10
9,O=C(Nc1ccccn1)c1ccc(CN2C(=O)c3ccc(Cl)cc3NC(=O)[C@H]2Cc2cccc(F)c2)cc1 [Example 35j],< 0.1
10,CC(C)C[C@@H]1C(=O)Nc2cc(Cl)ccc2C(=O)N1Cc1ccc(C(=O)Nc2ccccn2)cc1 [Example 35k],10 to 35
11,O=C1Nc2cc(Cl)ccc2C(=O)N(C[C@H]2CC[C@H](C(=O)Nc3ccccn3)CC2)[C@@H]1Cc1cccnc1 [Example 35l],0.1 to 0.999
12,O=C(Nc1ccccn1)c1ccc(CN2C(=O)c3ccc(Cl)cc3NC(=O)[C@@H]2Cc2cccnc2)cc1 [Example 35m],0.1 to 0.999
13,O=C(Nc1ccccn1)c1ccc(CN2C(=O)c3ccncc3NC(=O)[C@H]2Cc2cccnc2)cc1 [Example 35n],0.1 to 0.999
14,"O=C1Nc2cc(Cl)ccc2C(=O)N(Cc2ccc(S(=O)(=O)Nc3ccccn3)cc2)[C@@H]1Cc1cccnc1 [Example 36a, (R)-4-((8-Chloro-2,5-dioxo-3-(pyridin-3-ylmethyl)-2,3-dihydro-1H-benzo[e][1,4]diazepin-4(5H)-yl)methyl)-N-(pyridin-2-yl)benzenesulfonamide]",1 to 10
15,"O=C1Nc2cc(Cl)ccc2C(=O)N(Cc2ccc3c(c2)CCN(c2ccccn2)C3=O)[C@@H]1Cc1ccccn1 [Example 37a, (R)-8-Chloro-4-((1-oxo-2-(pyridin-2-yl)-1,2,3,4-tetrahydroisoquinolin-6-yl)methyl)-3-(pyridin-2-ylmethyl)-3,4-dihydro-1H-benzo[e][1,4]diazepine-2,5-dione]",1 to 10
16,"COc1ccc(COc2cc(CN3C(=O)c4ccc(Cl)cc4NC(=O)[C@H]3C)ccc2C(=O)O)cc1 [Example 38a, (R)-2-(4-Methoxybenzyloxy)-4-((8-chloro-3-methyl-2,5-dioxo-2,3-dihydro-1H-benzo[e][1,4]diazepin-4(5H)-yl)methyl)benzoic Acid]",10 to 35
17,"Cc1ccc(NC(=O)c2ccc(CN3C(=O)c4ccc(NS(C)(=O)=O)cc4NC(=O)[C@H]3C)cc2)nc1 [Example 39a, (R)-4-((3-Methyl-8-(methylsulfonamido)-2,5-dioxo-2,3-dihydro-1H-benzo[e][1,4]diazepin-4(5H)-yl)methyl)-N-(5-methylpyridin-2-yl)benzamide]",10 to 35
18,"O=C(NO)c1ccc(CN2C(=O)c3ccc(Cl)cc3NC(=O)[C@H]2Cc2ccccn2)cc1 [Example 40a, (R)-4-((8-Chloro-2,5-dioxo-3-(pyridin-2-ylmethyl)-2,3-dihydro-1H-benzo[e][1,4]diazepin-4(5H)-yl)methyl)-N-hydroxybenzamide]",< 0.1
19,"O=C1Nc2cc(Cl)ccc2C(=O)N(Cc2ccc(CO)cc2)[C@@H]1Cc1ccccn1 [Example 41a, 8-Chloro-4-(4-(hydroxymethyl)benzyl)-3-(pyridin-2-ylmethyl)-3,4-dihydro-1H-benzo[e][1,4]diazepine-2,5-dione]",1 to 10
20,"O=C1Nc2cc(Cl)ccc2C(=O)N(CC2CCN(C(=O)Nc3ccccn3)CC2)[C@@H]1Cc1ccccn1 [Example 42a, (R)-4-((8-Chloro-2,5-dioxo-3-(pyridin-2-ylmethyl)-2,3-dihydro-1H-benzo[e][1,4]diazepin-4(5H)-yl)methyl)-N-(pyridin-2-yl)piperidine-1-carboxamide]",1 to 10
21,"Cn1cc(C(=O)N2CCC(CN3C(=O)c4ccc(Cl)cc4NC(=O)[C@H]3Cc3ccccn3)CC2)c2ncccc21 [Example 43a, (R)-8-Chloro-4-((1-(1-methyl-1H-pyrrolo[3,2-b]pyridine-3-carbonyl)piperidin-4-yl)methyl)-3-(pyridin-2-ylmethyl)-3,4-dihydro-1H-benzo[e][1,4]diazepine-2,5-dione]",1 to 10
22,"Cc1ccc(Nc2nn(C)c3cc(CN4C(=O)c5ccc(Cl)cc5NC(=O)[C@H]4Cc4ccccn4)ccc23)nc1 [Example 44a, (R)-8-Chloro-4-((1-methyl-3-((5-methylpyridin-2-yl)amino)-1H-indazol-6-yl)methyl)-3-(pyridin-2-ylmethyl)-3,4-dihydro-1H-benzo[e][1,4]diazepine-2,5-dione]",0.1 to 0.999
23,"Nc1cccnc1C(=O)Nc1ccc(CN2C(=O)c3ccc(Cl)cc3NC(=O)[C@H]2Cc2ccccn2)cc1 [Example 45a, (R)-3-Amino-N-(4-((8-chloro-2,5-dioxo-3-(pyridin-2-ylmethyl)-2,3-dihydro-1H-benzo[e][1,4]diazepin-4(5H)-yl)methyl)phenyl)picolinamide]",< 0.1

# Same assay, conditions: read-out: TcdB UDP-Glucose hydrolysis activity (IC50, coded); UDP-Glucose hydrolysis assay, fluorescence polarization
row,Structure (SMILES),IC50 [µM]
1,O=C1Nc2cc(Cl)ccc2C(=O)N(C[C@H]2CC[C@H](C(=O)c3cccn4ccnc34)CC2)[C@@H]1Cc1ccccn1 [Example 34b],< 0.1
